Data from patent publication US20260306459A1, “INHIBITORS OF NSUN1- AND NSUN2-MEDIATED ACTIVE STRUCTURES” (THE UNIVERSITY OF CHICAGO, priority 2023, published 2026).

Tests used:
[1] = tested on: leukemia and lung cancer cell lines; experiment: Functional (MTT) screening of NSUN1/2-targeting libraries in leukemia and lung cancer cell lines; assay type: cell-based, human; details: leukemia and lung cancer cell lines
Experimental: (§1) FIGS. 11A-11D display scatter plot representations of screening results for AI-designed NSUN1-targeting compound libraries in a venetcoclax-resistant human myeloid leukemia cell line (SC), lung cancer cell line (H82), and venetoclax resistant human […], and a schematic representation of categorization of the results. A human myeloid leukemia cell Line (SC), a lung cancer cell line (H82 or K562) were both incubated at drug concentration 10 μM/μL overnight. MTT assays were performed after 24 hours, and changes were calculated as the percentage of mean absorbance (n=3) versus mean absorbance of drug-free control (n=3). Negative outliers indicated in red ovals. FIG. 11A depicts the results of an NSUN1-targeting drug library, 74 drugs, comparing growth/inhibition in H-82 (Y axis) and SC (X axis) cell lines. FIG. 11B depicts the results of an NSUN2-targeting drug library, 102 drugs, comparing growth/inhibition in H-82 (Y axis) and SC (X axis) cell lines. FIG. 11C depicts the results of an NSUN1-targeting drug library, 74 drugs, comparing growth/inhibition in K562 (Y axis) and SC (X axis) cell lines. FIG. 11D is a schematic representation showing categorization of the results from screens performed as described in FIG. 11, and validation experiments as described in FIG. 12.
(§2) FIGS. 12A-12J display bar graphs displaying the results of validation experiments for small molecule inhibitors of NSUN1/2-ACS interactions as identified herein. Drug validation of select SC, H82, and/or K562 inhibiting compounds in mouse acute myeloid leukemia cell Line (C1498), SC cells, H82 cells, and/or K562 cells. NSUN1-17 and/or venetoclax acted as controls. Inhibition of cell vitality was identified as dose-dependent for certain small molecules, not merely cytotoxic. In brief, stock with concentration 0.4×10^6 test (e.g., SC, H82, K562, or C1498, as labelled) cells/mL, and 10 μM/μL drug was serially diluted into drug-free cell stock to reach concentrations of 1 μM/μL and […] and split into 100 μL volumes in a 96-well plate. MTT assays performed after 24 hour incubation. Percentages calculated as a difference in mean absorbance of each drug triplicate and mean absorbance in drug-free cell triplicate. Red bars represent standard errors. The concentration of drug represented by each column is from left to right as written in the figure keys. FIGS. 12A-12E provide results from independent repeats for different groupings of small molecules tested against C1498 cells. FIGS. 12F-12G provide results from independent repeats for different groupings of small molecules tested against H82 cells. FIGS. […] provide results from independent repeats for different groupings of small molecules tested against SC cells. FIG. 12J provide results from an assay against K562 cells.
The inventors then designed a protocol for functional screening of NSUN1/2-targeting supercomputing/AI-derived compound libraries as schematically presented in FIGS. 5A-5G. Briefly, the library compounds were obtained from various chemical companies/vendors and dissolved in DMSO, and then applied to 96-well plates that contained leukemia and/or other cancer cells that were resistant to venetoclax. Both the routine colorimetric assay (MTT assay) and the newly developed NSUN1/2-targeting fluorescence quenching and release (FQR) assay were performed to select bioactive compounds for further quantitative study to confirm that they targetNSUN1/2 and their associated ACS. As described below, the compound libraries screened through cancer cell proliferation and/or NSUN1/2 localization to the ACS successfully identified numerous promising compounds that can inhibit the leukemia cell growth and appear to target the NSUN1-mediated ACS (see Table 2). This success has proven the feasibility and efficacy of the described supercomputing/AI design and functional screening of the NSUN1/2-targeting drug libraries. In some aspects, screening is conducted using drug-resistant cell lines. […]

[2] = target: NSUN2-mitochondrial translation initiation factor 3 (MTIF3) interaction (Homo sapiens, UniProt Q08J23); experiment: PL-RCA-FCM, NSUN2-MTIF3 interaction; assay type: cell-based
Text: (§3) FIG. 23 provides PL-RCA-FCM results and an associated schematic showing that NSUN2-11 can disrupt the interactions between NSUN2 and mitochondrial RNA polymerase (POLRMT) as well as mitochondrial translation initiation factor 3 (MTIF3). RNA:m5C/NSUN1/2-mediated transcription and translation complexes (RNATTC) mediate multidrug resistance through regulating multi-bioprocesses and multi-organelles' functions in cancer cells.
(§4) The PL-RCA-CM/imaging technique utilized in the inventors previous work (Cheng, J. X. et al., Nature Communications 2018) was suitable to visualize and semi-quantify the NSUN1/2-mediated ACS in cells. However, the previous technique had the disadvantage of having a low sensitivity and low throughput. To overcome this bottleneck, as described herein, the inventors developed NSUN1/2-targeting fluorescence quenching and release (FQR) plate assay (FIG. 6A) and PL-RCA flow cytometry (PL-RCA-FCM) technology (FIG. 6B) for screening of NSUN1/2-targeting drug libraries and quantitatively measuring NSUN1/2-mediated ACS with and without drugs in a lineage-specific and high-throughput manner. The new PL-RCA-FCM detected very strong PL-RCA signals (>2 logs) of the NSUN2-mediated interactions with m5C, RNAPII CTD2-S2P and BRD4, particularly in the venetoclax-resistant leukemia cells (SC) (FIG. 6C), in comparison to the venetoclax-sensitive K1 cells (FIG. 6D).

[3] = target: T1, NSUN2-RNA polymerase II (RNAPII) interaction (Homo sapiens, UniProt Q08J23); experiment: PL-RCA-FCM, NSUN2-RNAPII interaction; assay type: cell-based
T1 construct: RNAPII CTD2-S2P
Text: (§5) Black=negative control, blue=positive control, no drug=red.
as §4

[4] = target: NSUN2-mitochondrial RNA polymerase (POLRMT) interaction (Homo sapiens, UniProt Q08J23); experiment: PL-RCA-FCM, NSUN2-POLRMT interaction; assay type: cell-based
Text: as §3, §4

[5] = target: T2, NSUN1-eRNAPII interaction (Homo sapiens, UniProt P46087); experiment: PL-RCA-FCM, NSUN1-eRNAPII interaction; assay type: cell-based
T2 construct: RNAPII
Text: (§6) FIGS. 5A-5G display a pipeline of computational design and functional screening of small-molecule compound libraries as well as exemplary characterization and validation of identified positive hit compounds and their targets. FIGS. 5A-5D display an exemplary experimental procedure, beginning with characterization of NSUN1 and/or NSUN2 putative binding modules for interaction with ACS components (FIGS. 5A-5B), a graphic displaying the design of a small molecule library and testing of the putative small molecule NSUN1/2-ACS inhibitors in cell lines (FIG. 5C), characterization of the NSUN1/2-ACS inhibitors interactions with the ACS machinery (FIG. 5D).
as §5
(§7) The PL-RCA-CM/imaging technique utilized in the inventors previous work (Cheng, J. X. et al., Nature Communications 2018) was suitable to visualize and semi-quantify the NSUN1/2-mediated ACS in cells. […] To overcome this bottleneck, as described herein, the inventors developed NSUN1/2-targeting fluorescence quenching and release (FQR) plate assay (FIG. 6A) and PL-RCA flow cytometry (PL-RCA-FCM) technology (FIG. 6B) for screening of NSUN1/2-targeting drug libraries and quantitatively measuring NSUN1/2-mediated ACS with and without drugs in a lineage-specific and high-throughput manner. […]

NSUN2-c-MYC interaction = NSUN2-c-MYC interaction (Homo sapiens, UniProt Q08J23); experiment: PL-RCA-FCM, NSUN2-c-MYC interaction; assay type: cell-based
Text: as §5, §4

NSUN1-c-MYC interaction = NSUN1-c-MYC interaction (Homo sapiens, UniProt P46087); experiment: PL-RCA-FCM, NSUN1-c-MYC interaction; assay type: cell-based
Text: as §6, §5, §7

C1498 cells = experiment: MTT growth inhibition in myeloid leukemia cell line C1498; assay type: cell-based, mouse; details: mouse AML cell line
Text: (§8) FIGS. 8A-8B display a schematic of an 5-ethynyl uridine click chemistry (EC)-coupled flow cytometry (EC-FCM) assay (FIG. 8A), while FIG. 8B depicts the results of an EC-FCM assay showing distinct drug-specific signatures/patterns of nascent RNA synthesis inhibition in the venetoclax sensitive leukemia cell line (K1). The MTT assay measures cell viability and proliferation as well as cytotoxicity of compounds by assessing cellular metabolic activity. The associated measurement can be described as cell viability, cell killing, and/or growth inhibition.
as §2
The inventors then designed a protocol for functional screening of NSUN1/2-targeting supercomputing/AI-derived compound libraries as schematically presented in FIGS. 5A-5G. Briefly, the library compounds were obtained from various chemical companies/vendors and dissolved in DMSO, and then applied to 96-well plates that contained leukemia and/or other cancer cells that were resistant to venetoclax. Both the routine colorimetric assay (MTT assay) and the newly developed NSUN1/2-targeting fluorescence quenching and release (FQR) assay were performed to select bioactive compounds for further quantitative study to confirm that they targetNSUN1/2 and their associated ACS. As described below, the compound libraries screened through cancer cell proliferation and/or NSUN1/2 localization to the ACS successfully identified numerous promising compounds that can inhibit the leukemia cell growth and appear to target the NSUN1-mediated ACS (see Table 2). This success has proven the feasibility and efficacy of the described supercomputing/AI design and functional screening of the NSUN1/2-targeting drug libraries. In some aspects, screening is conducted using drug-resistant cell lines. In some aspects, screening is conducted using drug-sensitive cell lines. In some aspects, screening is conducted in leukemia cell lines. In some aspects, screening is conducted in other cancer cell lines besides leukemia (e.g., lung cancer cell lines). In some aspects, NSUN1/2-ACS inhibitors identified are verified in additional cell lines and/or animal models (see e.g., Tables 4-6).

SC cells = experiment: MTT growth inhibition in venetoclax-resistant monocytic leukemia cell line SC; assay type: cell-based, human; details: monocytic leukemia line SC
Text: as §8, §1, §2
The inventors then designed a protocol for functional screening of NSUN1/2-targeting supercomputing/AI-derived compound libraries as schematically presented in FIGS. 5A-5G. Briefly, the library compounds were obtained from various chemical companies/vendors and dissolved in DMSO, and then applied to 96-well plates that contained leukemia and/or other cancer cells that were resistant to venetoclax. […]

CCRF-CEM cells = experiment: Venetoclax sensitivity of CCRF-CEM cells; assay type: cell-based
H82 cells = experiment: MTT growth inhibition in venetoclax-resistant lung cancer cell line H82; assay type: cell-based, human; details: human lung cancer cell line NCI-H82
Text: as §8, §1
FIGS. 12A-12J display bar graphs displaying the results of validation experiments for small molecule inhibitors of NSUN1/2-ACS interactions as identified herein. Drug validation of select SC, H82, and/or K562 inhibiting compounds in mouse acute myeloid leukemia cell Line (C1498), SC cells, H82 cells, and/or K562 cells. NSUN1-17 and/or venetoclax acted as controls. Inhibition of cell vitality was identified as dose-dependent for certain small molecules, not merely cytotoxic. In brief, stock with concentration 0.4×10^6 test (e.g., SC, H82, K562, or C1498, as labelled) cells/mL, and 10 μM/μL drug was serially diluted into drug-free cell stock to reach concentrations of 1 μM/μL and […] and split into 100 μL volumes in a 96-well plate. MTT assays performed after 24 hour incubation. Percentages calculated as a difference in mean absorbance of each drug triplicate and mean absorbance in drug-free cell triplicate. […]

MDS/AML = details: cited from earlier work
Kasumi-1 (K1) cells = experiment: Venetoclax sensitivity of Kasumi-1 cells; assay type: cell-based
K1VR cells = experiment: Venetoclax sensitivity of K1VR cells after NSUN1/NSUN2 knockdown; assay type: cell-based; details: knockdown of either NSUN1 or NSUN2
[6] = tested on: eRNAPII (CTD-S2P)-NSUN3 interaction; details: Cheng 2018; cited from earlier work
[7] = tested on: eRNAPII (CTD-S2P)-DNMT2 interaction; details: Cheng 2018; cited from earlier work
[8] = tested on: eRNAPII (CTD-S2P)-NSUN1 interaction; details: Cheng 2018; cited from earlier work
[9] = tested on: eRNAPII (CTD-S2P)-CTD-S5P interaction; details: Cheng 2018; cited from earlier work
SCAR cells = details: low concentrations of 5-AZA, NSUN1 siRNA; Cheng 2018; cited from earlier work
[10] = tested on: BRD4-eRNAPII (CTD-S2P) interaction; details: azacitidine-resistant M2AR cells; Cheng 2018; cited from earlier work
BRD4-NSUN1 interaction = details: azacitidine-resistant M2AR cells; Cheng 2018; cited from earlier work

NSUN1-c-MYC interaction, sequence (P46087 whole entry): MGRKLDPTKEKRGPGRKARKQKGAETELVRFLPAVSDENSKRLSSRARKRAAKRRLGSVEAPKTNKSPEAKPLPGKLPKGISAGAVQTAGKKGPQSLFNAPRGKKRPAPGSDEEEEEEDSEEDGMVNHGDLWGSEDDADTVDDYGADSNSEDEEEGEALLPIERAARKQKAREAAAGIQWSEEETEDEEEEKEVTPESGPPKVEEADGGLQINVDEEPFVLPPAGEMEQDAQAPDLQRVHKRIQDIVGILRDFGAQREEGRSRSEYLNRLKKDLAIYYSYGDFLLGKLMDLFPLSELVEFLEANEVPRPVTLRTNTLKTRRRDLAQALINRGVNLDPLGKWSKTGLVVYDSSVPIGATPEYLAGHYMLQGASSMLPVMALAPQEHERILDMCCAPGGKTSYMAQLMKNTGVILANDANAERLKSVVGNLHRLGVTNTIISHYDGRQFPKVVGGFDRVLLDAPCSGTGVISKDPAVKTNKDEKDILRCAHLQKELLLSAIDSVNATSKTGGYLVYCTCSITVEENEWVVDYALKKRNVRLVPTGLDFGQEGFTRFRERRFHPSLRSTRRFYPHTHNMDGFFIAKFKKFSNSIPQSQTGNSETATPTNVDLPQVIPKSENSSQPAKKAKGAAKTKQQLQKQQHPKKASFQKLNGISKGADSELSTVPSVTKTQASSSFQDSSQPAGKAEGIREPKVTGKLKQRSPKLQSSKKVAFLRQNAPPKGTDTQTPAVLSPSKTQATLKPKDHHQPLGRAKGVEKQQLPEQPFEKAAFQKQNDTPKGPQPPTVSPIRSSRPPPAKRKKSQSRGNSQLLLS
T2 sequence (P46087 whole entry): as above
NSUN2-mitochondrial translation initiation factor 3 (MTIF3) interaction, sequence (Q08J23 whole entry): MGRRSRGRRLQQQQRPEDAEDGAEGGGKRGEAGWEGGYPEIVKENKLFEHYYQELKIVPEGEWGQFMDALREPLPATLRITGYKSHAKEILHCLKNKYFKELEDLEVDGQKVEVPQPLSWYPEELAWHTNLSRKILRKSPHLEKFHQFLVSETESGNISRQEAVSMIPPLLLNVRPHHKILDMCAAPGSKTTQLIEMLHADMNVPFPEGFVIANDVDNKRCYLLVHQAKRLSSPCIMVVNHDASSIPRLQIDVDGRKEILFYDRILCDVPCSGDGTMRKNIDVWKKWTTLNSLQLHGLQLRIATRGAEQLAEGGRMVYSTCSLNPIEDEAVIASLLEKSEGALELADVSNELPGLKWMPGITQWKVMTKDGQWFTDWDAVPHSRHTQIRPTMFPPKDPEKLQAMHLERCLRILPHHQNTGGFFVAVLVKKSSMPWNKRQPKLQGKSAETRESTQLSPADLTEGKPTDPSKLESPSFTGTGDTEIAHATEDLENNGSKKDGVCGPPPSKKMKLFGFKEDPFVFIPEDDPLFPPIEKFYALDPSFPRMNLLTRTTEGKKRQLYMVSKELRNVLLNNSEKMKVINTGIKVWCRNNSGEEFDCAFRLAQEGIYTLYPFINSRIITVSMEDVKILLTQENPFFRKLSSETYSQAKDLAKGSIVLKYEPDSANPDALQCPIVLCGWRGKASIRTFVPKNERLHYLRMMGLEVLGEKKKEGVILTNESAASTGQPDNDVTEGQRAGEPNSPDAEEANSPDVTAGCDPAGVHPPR
NSUN2-mitochondrial RNA polymerase (POLRMT) interaction, sequence (Q08J23 whole entry): as above
T1 sequence (Q08J23 whole entry): as above
NSUN2-c-MYC interaction, sequence (Q08J23 whole entry): as above

COc1ccc2c(c1)CCc1c(C(=O)NCCc3nc4cc(C)ccc4[nH]3)n[nH]c1-2 [NSUN2-11]
Bioactive positive hit, tumor cell growth inhibition and lineage preference [1]: inhibits tumor cell growth in a non-lineage specific manner
Effect on NSUN2-MTIF3 interaction [2]: can disrupt
Effect on NSUN2-mediated interaction with RNA polymerase II [3]: can disrupt
Effect on NSUN2-POLRMT interaction [4]: can disrupt
Effect on NSUN1 interaction with eRNAPII/RNAPII [5]: can disrupt
Effect on NSUN2-mediated interaction with c-MYC (NSUN2-c-MYC interaction): can disrupt
Effect on NSUN1 interaction with c-MYC (NSUN1-c-MYC interaction): can disrupt

CC1(C)CCC(CN2CCN(c3ccc(C(=O)NS(=O)(=O)c4ccc(NCC5CCOCC5)c([N+](=O)[O-])c4)c(Oc4cnc5[nH]ccc5c4)c3)CC2)=C(c2ccc(Cl)cc2)C1 [venetoclax, Venetoclax]
Sensitivity/resistance of C1498 cells (C1498 cells): moderate to high resistance
Sensitivity/resistance of SC cells (SC cells): highly resistant
Sensitivity/resistance of CCRF-CEM cells (CCRF-CEM cells): sensitive
Sensitivity/resistance of NCI-H82 cells (H82 cells): resistant
AML patients developing venetoclax acquired resistance (MDS/AML; AML patients, venetoclax-based therapy, acquired resistance): > 60%
MDS/AML with primary venetoclax resistance (MDS/AML; MDS/AML, primary resistance): 30-40%
Sensitivity/resistance of Kasumi-1 cells (Kasumi-1 (K1) cells): sensitive
Sensitivity of K1VR cells after NSUN1 or NSUN2 siRNA knockdown (K1VR cells): re-sensitize

Nc1ncn([C@@H]2O[C@H](CO)[C@@H](O)[C@H]2O)c(=O)n1 [5-AZA, 5-azacytidine]
Sensitivity of eRNAPII (CTD-S2P)-NSUN3 interaction [6]: highly sensitive
Sensitivity of eRNAPII (CTD-S2P)-DNMT2 interaction [7]: highly sensitive
Sensitivity of eRNAPII (CTD-S2P)-NSUN1 interaction [8]: resistant
Sensitivity of eRNAPII (CTD-S2P)-CTD-S5P interaction [9]: resistant
Response of 5-AZA-resistant SCAR cells after NSUN1 knockdown (SCAR cells): re-sensitized

Cc1sc2c(c1C)C(c1ccc(Cl)cc1)=N[C@@H](CC(=O)OC(C)(C)C)c1nnc(C)n1-2 [JQ1]
Sensitivity of BRD4-eRNAPII (CTD-S2P) interaction [10]: insensitive
Sensitivity of BRD4-NSUN1 interaction (BRD4-NSUN1 interaction): insensitive
